Measurements: patent US6242494A, “Substituted β-amino acid inhibitors of methionine aminopeptidase-2” (Abbott Laboratories, priority 1999, dated 2001)
Structures can show the parent of a compound that is named as a salt.

These compounds were tested against T1, methionine aminopeptidase-2 (MetAP2) (Homo sapiens, UniProt P50579) (assay: Inhibition of MetAP2 enzyme activity (96-well, Met-Ala-Ser substrate, L-amino acid oxidase/peroxidase/ortho-dianisidine, 450 nm)). Settings: IC50, recombinant MetAP2 4 μg/mL, pH 7.4, Met-Ala-Ser substrate, 20 minutes.
T1 construct: made in house; host or cells: insect cells, baculovirus system (secreted, purified from culture supernatant)
T1 sequence (P50579 whole entry): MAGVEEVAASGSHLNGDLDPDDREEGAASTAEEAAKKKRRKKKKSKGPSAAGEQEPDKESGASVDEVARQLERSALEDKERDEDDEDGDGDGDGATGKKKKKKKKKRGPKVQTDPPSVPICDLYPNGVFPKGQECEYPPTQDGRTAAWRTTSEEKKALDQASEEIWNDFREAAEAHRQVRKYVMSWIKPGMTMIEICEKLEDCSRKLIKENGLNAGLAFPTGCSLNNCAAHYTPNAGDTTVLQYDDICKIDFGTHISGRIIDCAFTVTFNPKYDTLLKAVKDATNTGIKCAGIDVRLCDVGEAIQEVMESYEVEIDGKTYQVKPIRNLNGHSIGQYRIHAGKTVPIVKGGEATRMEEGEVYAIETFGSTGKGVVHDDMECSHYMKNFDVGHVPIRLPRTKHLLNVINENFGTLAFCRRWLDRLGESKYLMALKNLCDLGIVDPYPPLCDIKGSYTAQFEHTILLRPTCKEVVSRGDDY
Assay type: biochemical

**Q.** For `COc1ccc(-c2ccccc2)cc1NC(=O)C(O)[C@H](N)CC1CCCCC1` (mixture of isomers) [Example 221, (2RS,3R)-3-amino-4-cyclohexyl-2-hydroxy-N-(4-methoxy(1,1'-biphenyl)-3-yl)butanamide Hydrochloride], which IC50 is on record?
**A.** Its IC50 is 5400 nM.

**Q.** Which IC50 does the source give for `N[C@H](CC1CCCCC1)C(O)C(=O)Nc1ccc2c(c1)OCCO2` (mixture of isomers) [Example 222, (2RS,3R)-3-amino-4-cyclohexyl-N-(2,3-dihydro-1,4-benzodioxin-6-yl)-2-hydroxybutanamide Hydrochloride] here?
**A.** Its IC50 is 200 nM.

**Q.** `N[C@H](CC1CCCCC1)C(O)C(=O)Nc1cccc(OCc2ccccc2)c1` (mixture of isomers) [Example 223, (2RS,3R)-3-amino-N-(3-(benzyloxy)phenyl)-4-cyclohexyl-2-hydroxybutanamide Hydrochloride] was tested. Which IC50 did it give?
**A.** Its IC50 is 880 nM.

**Q.** Which IC50 does the source give for `CCOc1cccc(NC(=O)C(O)[C@H](N)CC2CCCCC2)c1` (mixture of isomers) [Example 224, (2RS,3R)-3-amino-4-cyclohexyl-N-(3-ethoxyphenyl)-2-hydroxybutanamide Hydrochloride] here?
**A.** Its IC50 is 430 nM.

**Q.** For `COc1cc(NC(=O)C(O)[C@H](N)CC2CCCCC2)cc(OC)c1OC` (mixture of isomers) [Example 225, (2RS,3R)-3-amino-4-cyclohexyl-2-hydroxy-N-(3,4,5-trimethoxyphenyl)butanamide Hydrochloride], which IC50 is on record?
**A.** Its IC50 is 350 nM.

**Q.** Which IC50 does the source give for `CC(Cc1ccccc1F)NC(=O)C(O)[C@H](N)CC1CCCCC1` (mixture of isomers) [Example 226, (2RS,3R)-3-amino-4-cyclohexyl-N-(2-(2-fluorophenyl)-1-methylethyl)-2-hydroxybutanamide Hydrochloride] here?
**A.** Its IC50 is 970 nM.

**Q.** With `CC(C)(Cc1ccc(F)cc1)NC(=O)C(O)[C@H](N)CC1CCCCC1` (mixture of isomers) [Example 227, (2RS,3R)-3-amino-4-cyclohexyl-N-(2-(4-fluorophenyl)-1,1-dimethylethyl)-2-hydroxybutanamide Hydrochloride] as the compound, how does the IC50 read?
**A.** Its IC50 is 880 nM.

**Q.** With `N[C@H](CC1CCCCC1)C(O)C(=O)NC1CCc2ccccc21` (mixture of isomers) [Example 228, (2RS,3R)-3-amino-4-cyclohexyl-N-(2,3-dihydro-1H-inden-1-yl)-2-hydroxybutanamide Hydrochloride] as the compound, how does the IC50 read?
**A.** Its IC50 is 930 nM.

**Q.** Which IC50 does the source give for `N[C@H](CC1CCCCC1)C(O)C(=O)N[C@H]1C[C@@H]1c1ccccc1` (mixture of isomers) [Example 229, (2RS,3R)-3-amino-4-cyclohexyl-2-hydroxy-N-((1S,2R)-2-phenylcyclopropyl)butanamide Hydrochloride] here?
**A.** Its IC50 is 1200 nM.

**Q.** With `CC(C)(C)CC(C)(C)NC(=O)C(O)[C@H](N)CC1CCCCC1` (mixture of isomers) [Example 230, (2RS,3R)-3-amino-4-cyclohexyl-2-hydroxy-N-(1,1,3,3-tetramethylbutyl)butanamide Hydrochloride] as the compound, how does the IC50 read?
**A.** The IC50 was 34000 nM.

**Q.** For `CC(C)CC(C)NC(=O)C(O)[C@H](N)CC1CCCCC1` (mixture of isomers) [Example 231, (2RS,3R)-3-amino-4-cyclohexyl-N-(1,3-dimethylbutyl)-2-hydroxybutanamide Hydrochloride], which IC50 is on record?
**A.** The IC50 was 2500 nM.

**Q.** Which IC50 does the source give for `CC(NC(=O)C(O)[C@H](N)CC1CCCCC1)C12CC3CC(CC(C3)C1)C2` (mixture of isomers) [Example 233, (2RS,3R)-N-(1-(1-adamantyl)ethyl)-3-amino-4-cyclohexyl-2-hydroxybutanamide Hydrochloride] here?
**A.** Its IC50 is 2700 nM.

**Q.** How did the IC50 turn out when `N[C@H](CC1CCCCC1)C(O)C(=O)NCc1cccc(OC(F)(F)F)c1` (mixture of isomers) [Example 236, (2RS,3R)-3-amino-4-cyclohexyl-2-hydroxy-N-(3-(trifluoromethoxy)benzyl)butanamide Hydrochloride] was run?
**A.** The IC50 was 1900 nM.

**Q.** `N[C@H](CC1CCCCC1)C(O)C(=O)NCc1cc(C(F)(F)F)cc(C(F)(F)F)c1` (mixture of isomers) [Example 237, (2RS,3R)-3-amino-N-(3,5-bis(trifluoromethyl)benzyl)-4-cyclohexyl-2-hydroxybutanamide Hydrochloride] was tested. Which IC50 did it give?
**A.** The IC50 was 5100 nM.

**Q.** `N[C@H](CC1CCCCC1)C(O)C(=O)NCc1ccccc1C(F)(F)F` (mixture of isomers) [Example 238, (2RS,3R)-3-amino-4-cyclohexyl-2-hydroxy-N-(2-(trifluoromethyl)benzyl)butanamide] was tested. Which IC50 did it give?
**A.** The IC50 was 2700 nM.

**Q.** For `CCNC(=O)[C@H](C)NC(=O)C(O)[C@@H](N)CCSC` (stereo partly drawn) [Example 2, (2RS,3S,1'S)-N-((1-Ethylcarboxamido)ethyl)-3-amino-2-hydroxy-5-(methylthio)pentanamide hydrochloride], which IC50 is on record?
**A.** Its IC50 is 47000 nM.

**Q.** Which IC50 does the source give for `CCNC(=O)[C@H](C)NC(=O)C(O)[C@H](N)CCSC` (stereo partly drawn) [Example 3, (2RS,3R,1'S)-N-((1-Ethylcarboxamido)ethyl)-3-amino-2-hydroxy-5-(methylthio)pentanamide hydrochloride] here?
**A.** Its IC50 is 10000 nM.

**Q.** Which IC50 does the source give for `CSCC[C@@H](N)C(O)C(=O)NCCc1ccccc1` (stereo partly drawn) [Example 5, (2RS,3R)-N-((2-phenylethyl)-3-amino-2-hydroxy-5-(methylthio)pentanamide hydrochloride] here?
**A.** Its IC50 is 2600 nM.

**Q.** Which IC50 does the source give for `CSCC[C@@H](N)C(O)C(=O)NCCCc1ccccc1` (stereo partly drawn) [Example 6, (2RS,3R)-N-((3-phenylpropyl)-3-amino-2-hydroxy-5-(methylthio)pentanamide hydrochloride] here?
**A.** Its IC50 is 3000 nM.

**Q.** Which IC50 does the source give for `CSCC[C@@H](N)C(O)C(=O)NCCc1ccc(S(N)(=O)=O)cc1` (stereo partly drawn) [Example 9, (2RS,3R)-N-(2-(4-sulfonamidophenyl)ethyl)-3-amino-2-hydroxy-5-(methylthio)pentanamide hydrochloride] here?
**A.** Its IC50 is 2300 nM.

**Q.** How did the IC50 turn out when `CSCC[C@@H](N)C(O)C(=O)NCCc1ccccn1` (stereo partly drawn) [Example 10, (2RS,3R)-N-(2-(2-pyridyl)ethyl)-3-amino-2-hydroxy-5-(methylthio)pentanamidedihydrochloride] was run?
**A.** The IC50 was 3600 nM.

**Q.** How did the IC50 turn out when `CCSCC[C@@H](N)C(O)C(=O)NCCCCc1ccccc1` (stereo partly drawn) [Example 13, (2RS,3R)-N-(4-phenyl)butyl)-3-amino-2-hydroxy-5-(ethylthio)pentanamide hydrochloride] was run?
**A.** The IC50 was 1100 nM.

**Q.** For `CCOC(=O)CCNC(=O)C(O)[C@H](N)CCSCC` (stereo partly drawn) [Example 14, (2RS,3R)-N-(3-(carboethoxy)ethyl)-3-amino-2-hydroxy-5-(ethylthio)pentanamide hydrochloride], which IC50 is on record?
**A.** Its IC50 is 720 nM.

**Q.** For `CCSCC[C@@H](N)C(O)C(=O)NCCC(=O)OCc1ccccc1` (stereo partly drawn) [Example 15, (2RS,3R)-N-(3-(carbobenzyloxy)ethyl)-3-amino-2-hydroxy-5-(ethylthio)pentanamide hydrochloride], which IC50 is on record?
**A.** The IC50 was 720 nM.

**Q.** Which IC50 does the source give for `CCOC(=O)CCNC(=O)C(O)[C@H](N)CC1CCCCC1` (stereo partly drawn) [Example 24, (2RS,3R)-N-(2-(carboethoxy)ethyl)-3-amino-2-hydroxy-4-cyclohexyl-butanamidehydrochloride] here?
**A.** The IC50 was 1000 nM.

**Q.** For `CCOC(=O)[C@H](C)NC(=O)C(O)[C@H](N)Cc1ccccc1` (stereo partly drawn) [Example 26, (2RS,3R,1'S)-N-((1-ethoxycarbonyl)ethyl)-3-amino-2-hydroxy-4-phenyl-butanamide hydrochloride], which IC50 is on record?
**A.** Its IC50 is 4700 nM.

**Q.** With `COc1ccc(CCNC(=O)C(O)[C@H](N)CCSC)cc1` (stereo partly drawn) [Example 27, (2RS,3R)-3-amino-2-hydroxy-N-(4-methoxyphenethyl)-5-(methylthio)pentanamidehydrochloride] as the compound, how does the IC50 read?
**A.** The IC50 was 1700 nM.

**Q.** `N[C@H](CC1CCCCC1)C(O)C(=O)NCCCCc1ccccc1` (stereo partly drawn) [Example 30, hydrochloride] was tested. Which IC50 did it give?
**A.** Its IC50 is 1100 nM.

**Q.** For `CSCC[C@@H](N)C(O)C(=O)N(C)CCc1ccccc1` (stereo partly drawn) [Example 33, (2RS,3R)-3-amino-2-hydroxy-N-methyl-5-(methylthio)-N-phenethylpentanaamide hydrochloride], which IC50 is on record?
**A.** The IC50 was 2500 nM.

**Q.** Which IC50 does the source give for `CCSCC[C@@H](N)C(O)C(=O)N[C@@H](C)C(=O)O` (stereo partly drawn) [Example 34, hydrochloride] here?
**A.** Its IC50 is 3100 nM.

**Q.** `CCOC(=O)C(C)(C)NC(=O)C(O)[C@H](N)CCSCC` (stereo partly drawn) [Example 35, hydrochloride] was tested. Which IC50 did it give?
**A.** The IC50 was 110 nM.

**Q.** `CCOC(=O)[C@H](CO)NC(=O)C(O)[C@H](N)CCSCC` (stereo partly drawn) [Example 36, (2RS,3R)-N-((1-(2-hydroxy)-1-ethoxycarboxyethyl) 3-amino-2-hydroxy-4-ethylthio)pentanamide hydrochloride] was tested. Which IC50 did it give?
**A.** The IC50 was 140 nM.

**Q.** `CCOC(=O)CN(C)C(=O)C(O)[C@H](N)CCSCC` (stereo partly drawn) [Example 39, hydrochloride] was tested. Which IC50 did it give?
**A.** The IC50 was 5100 nM.

**Q.** Which IC50 does the source give for `CCSCC[C@@H](NC(=O)CO)C(O)C(=O)NCCCCc1ccccc1` (stereo partly drawn) [Example 40, hydrochloride] here?
**A.** Its IC50 is 81000 nM.

**Q.** For `CCSCC[C@@H](NCC(=O)OC)C(O)C(=O)NCCCCc1ccccc1` (stereo partly drawn) [Example 44, (2RS,3R)-N-((Phenylbutyryl)-3-methoxycarbonylmethylamino-2-hydroxy-4-ethylthio)pentanamide hydrochloride], which IC50 is on record?
**A.** Its IC50 is 13000 nM.

**Q.** Which IC50 does the source give for `CCOC(=O)[C@H](CO)NC(=O)C(O)[C@H](N)CC1CCCCC1` (stereo partly drawn) [Example 46, (2RS,3R,1'S)-N-((2-hydroxy-1-ethoxycarbonylethyl)-3-amino-2-hydroxy-4-cyclohexyl)butanamide hydrochloride] here?
**A.** Its IC50 is 1100 nM.

**Q.** How did the IC50 turn out when `CC(=O)OC[C@H](C)NC(=O)C(O)[C@H](N)CC1CCCCC1` (stereo partly drawn) [Example 47] was run?
**A.** Its IC50 is 1500 nM.

**Q.** With `CCC(=O)OC[C@H](C)NC(=O)C(O)[C@H](N)CC1CCCCC1` (stereo partly drawn) [Example 48, (2RS,3R,2'S)-N-((2-propionyloxypropyl)-3-amino-b2-hydroxy-$-cyclohexyl)butanamide hydrochloride] as the compound, how does the IC50 read?
**A.** The IC50 was 1500 nM.

**Q.** Which IC50 does the source give for `C[C@@H](COC(=O)c1ccccc1)NC(=O)C(O)[C@H](N)CC1CCCCC1` (stereo partly drawn) [Example 49, (2RS, 3R,2'S)-N-((2-benzoyloxypropyl)-3-amino-2-hydroxy-4-cyclohexyl)butanamide hydrochloride] here?
**A.** The IC50 was 2200 nM.

**Q.** With `C[C@H](COC(=O)c1ccccc1)NC(=O)C(O)[C@H](N)CC1CCCCC1` (stereo partly drawn) [Example 50, hydrochloride] as the compound, how does the IC50 read?
**A.** Its IC50 is 3700 nM.

**Q.** `CCC(=O)OC[C@@H](C)NC(=O)C(O)[C@H](N)CC1CCCCC1` (stereo partly drawn) [Example 51, hydrochloride] was tested. Which IC50 did it give?
**A.** The IC50 was 5000 nM.

Same assay, conditions: recombinant MetAP2 4 μg/mL, pH 7.4, Met-Ala-Ser substrate, 20 minutes; read-out: IC50

**Q.** `CCSC(C)[C@H](NC(=O)OC(C)(C)C)C(O)C(=O)NC(=O)CCCc1ccccc1` (mixture of isomers) [Example 37, (2RS,3R)-N-((phenylbutyryl)-3-tert-butoxycarbonylamino-2-hydroxy-4-ethylthio)pentanamide] was tested. Which IC50 did it give?
**A.** The IC50 was 16000 nM.
